Test results from ChEMBL document CHEMBL5038640, “Natural Berberine-derived Azolyl Ethanols as New Structural Antibacterial Agents against Drug-Resistant Escherichia coli” (J Med Chem, 2022).

What was measured:
[1] = Aqueous solubility of the compound in saline; type: physicochemical
Pseudomonas aeruginosa [2] = test: Antibacterial activity against Pseudomonas aeruginosa assessed as decrease in bacterial growth incubated for 18 hrs by broth microdilution method; type: functional
Staphylococcus aureus [3] = test: Antibacterial activity against Staphylococcus aureus ATCC 29213 assessed as decrease in bacterial growth incubated for 18 hrs by broth microdilution method; type: functional
Enterococcus faecalis = test: Antibacterial activity against Enterococcus faecalis assessed as decrease in bacterial growth incubated for 18 hrs by broth microdilution method; type: functional
Staphylococcus aureus [4] = test: Antibacterial activity against Staphylococcus aureus ATCC 25923 assessed as decrease in bacterial growth incubated for 18 hrs by broth microdilution method; type: functional
Escherichia coli [5] = test: Antibacterial activity against Escherichia coli assessed as decrease in bacterial growth incubated for 18 hrs by broth microdilution method; type: functional
Staphylococcus aureus [6] = test: Antibacterial activity against methicillin-resistant Staphylococcus aureus N315 assessed as decrease in bacterial growth incubated for 18 hrs by broth microdilution method; type: functional
Acinetobacter baumannii = test: Antibacterial activity against Acinetobacter baumannii assessed as decrease in bacterial growth incubated for 18 hrs by broth microdilution method; type: functional
Escherichia coli [7] = test: Antibacterial activity against Escherichia coli ATCC 25922 assessed as decrease in bacterial growth incubated for 18 hrs by broth microdilution method; type: functional
Staphylococcus aureus [8] = test: Antibacterial activity against Staphylococcus aureus assessed as decrease in bacterial growth incubated for 18 hrs by broth microdilution method; type: functional
Pseudomonas aeruginosa [9] = test: Antibacterial activity against Pseudomonas aeruginosa ATCC 27853 assessed as decrease in bacterial growth incubated for 18 hrs by broth microdilution method; type: functional
Klebsiella pneumoniae = test: Antibacterial activity against Klebsiella pneumoniae assessed as decrease in bacterial growth incubated for 18 hrs by broth microdilution method; type: functional

COc1ccc2cc3[n+](cc2c1OCC(O)Cn1cc(C=O)c2ccccc21)CCc1cc2c(cc1-3)OCO2.[Br-] (centres undefined)
solubility [1]: 790 µM
MIC (Pseudomonas aeruginosa [2]): 106 µM
MIC (Staphylococcus aureus [3]): 53 µM
MIC (Enterococcus faecalis): 53 µM
MIC (Staphylococcus aureus [4]): 53 µM
MIC (Escherichia coli [5]): 53 µM
MIC (Staphylococcus aureus [6]): 106 µM
MIC (Acinetobacter baumannii): 106 µM
MIC (Escherichia coli [7]): 53 µM
MIC (Staphylococcus aureus [8]): 53 µM
MIC (Pseudomonas aeruginosa [9]): 27 µM
MIC (Klebsiella pneumoniae): 106 µM

COc1ccc2cc3[n+](cc2c1OCC(O)CSc1nc2ccccc2[nH]1)CCc1cc2c(cc1-3)OCO2.[Br-] (centres undefined)
solubility [1]: 783 µM
MIC (Pseudomonas aeruginosa [2]): 105 µM
MIC (Staphylococcus aureus [3]): 53 µM
MIC (Enterococcus faecalis): 53 µM
MIC (Staphylococcus aureus [4]): 53 µM
MIC (Escherichia coli [5]): 53 µM
MIC (Staphylococcus aureus [6]): 53 µM
MIC (Acinetobacter baumannii): 26 µM
MIC (Escherichia coli [7]): 105 µM
MIC (Staphylococcus aureus [8]): 105 µM
MIC (Pseudomonas aeruginosa [9]): 53 µM
MIC (Klebsiella pneumoniae): 53 µM

COc1ccc2cc3[n+](cc2c1OC)CCc1cc2c(cc1-3)OCO2 [BERBERINE]
solubility [1]: 751 µM
MIC (Pseudomonas aeruginosa [2]): 344 µM
MIC (Staphylococcus aureus [3]): 172 µM
MIC (Enterococcus faecalis): 344 µM
MIC (Staphylococcus aureus [4]): 344 µM
MIC (Escherichia coli [5]): 344 µM
MIC (Staphylococcus aureus [6]): 689 µM
MIC (Acinetobacter baumannii): 1380 µM
MIC (Escherichia coli [7]): 172 µM
MIC (Staphylococcus aureus [8]): 344 µM
MIC (Pseudomonas aeruginosa [9]): 344 µM
MIC (Klebsiella pneumoniae): 172 µM

COc1ccc2cc3[n+](cc2c1OCC(O)CN(CCO)CCO)CCc1cc2c(cc1-3)OCO2.[Br-] (centres undefined)
solubility [1]: 4240 µM
MIC (Pseudomonas aeruginosa [2]): 114 µM
MIC (Staphylococcus aureus [3]): 28 µM
MIC (Enterococcus faecalis): 114 µM
MIC (Staphylococcus aureus [4]): 227 µM
MIC (Escherichia coli [5]): 114 µM
MIC (Staphylococcus aureus [6]): 57 µM
MIC (Acinetobacter baumannii): 114 µM
MIC (Escherichia coli [7]): 114 µM
MIC (Staphylococcus aureus [8]): 14 µM
MIC (Pseudomonas aeruginosa [9]): 114 µM
MIC (Klebsiella pneumoniae): 227 µM

COc1ccc2cc3[n+](cc2c1OCC(O)CN1CCCC1)CCc1cc2c(cc1-3)OCO2.[Br-] (centres undefined)
solubility [1]: 2340 µM
MIC (Pseudomonas aeruginosa [2]): 121 µM
MIC (Staphylococcus aureus [3]): 121 µM
MIC (Enterococcus faecalis): 121 µM
MIC (Staphylococcus aureus [4]): 121 µM
MIC (Escherichia coli [5]): 242 µM
MIC (Staphylococcus aureus [6]): 121 µM
MIC (Acinetobacter baumannii): 121 µM
MIC (Escherichia coli [7]): 121 µM
MIC (Staphylococcus aureus [8]): 60 µM
MIC (Pseudomonas aeruginosa [9]): 121 µM
MIC (Klebsiella pneumoniae): 242 µM

COc1ccc2cc3[n+](cc2c1OCC(O)CN1CCOCC1)CCc1cc2c(cc1-3)OCO2.[Br-] (centres undefined)
solubility [1]: 2190 µM
MIC (Pseudomonas aeruginosa [2]): 469 µM
MIC (Staphylococcus aureus [3]): 235 µM
MIC (Enterococcus faecalis): 469 µM
MIC (Staphylococcus aureus [4]): 469 µM
MIC (Escherichia coli [5]): 235 µM
MIC (Staphylococcus aureus [6]): 469 µM
MIC (Acinetobacter baumannii): 469 µM
MIC (Escherichia coli [7]): 235 µM
MIC (Staphylococcus aureus [8]): 469 µM
MIC (Pseudomonas aeruginosa [9]): 469 µM
MIC (Klebsiella pneumoniae): 469 µM

CCN(CCO)CC(O)COc1c(OC)ccc2cc3[n+](cc12)CCc1cc2c(cc1-3)OCO2.[Br-] (centres undefined)
solubility [1]: 3720 µM
MIC (Pseudomonas aeruginosa [2]): 468 µM
MIC (Staphylococcus aureus [3]): 234 µM
MIC (Enterococcus faecalis): 468 µM
MIC (Staphylococcus aureus [4]): 468 µM
MIC (Escherichia coli [5]): 234 µM
MIC (Staphylococcus aureus [6]): 468 µM
MIC (Acinetobacter baumannii): 468 µM
MIC (Escherichia coli [7]): 234 µM
MIC (Staphylococcus aureus [8]): 468 µM
MIC (Pseudomonas aeruginosa [9]): 468 µM
MIC (Klebsiella pneumoniae): 468 µM

COc1ccc2cc3[n+](cc2c1OCC(O)CSc1nc[nH]n1)CCc1cc2c(cc1-3)OCO2.[Br-] (centres undefined)
solubility [1]: 801 µM
MIC (Pseudomonas aeruginosa [2]): 114 µM
MIC (Staphylococcus aureus [3]): 114 µM
MIC (Enterococcus faecalis): 114 µM
MIC (Staphylococcus aureus [4]): 114 µM
MIC (Escherichia coli [5]): 57 µM
MIC (Staphylococcus aureus [6]): 57 µM
MIC (Acinetobacter baumannii): 114 µM
MIC (Escherichia coli [7]): 114 µM
MIC (Staphylococcus aureus [8]): 114 µM
MIC (Pseudomonas aeruginosa [9]): 114 µM
MIC (Klebsiella pneumoniae): 57 µM

COc1ccc2cc3[n+](cc2c1OCC(O)CSc1nnc(C)s1)CCc1cc2c(cc1-3)OCO2.[Br-] (centres undefined)
solubility [1]: 1180 µM
MIC (Pseudomonas aeruginosa [2]): 108 µM
MIC (Staphylococcus aureus [3]): 108 µM
MIC (Enterococcus faecalis): 108 µM
MIC (Staphylococcus aureus [4]): 108 µM
MIC (Escherichia coli [5]): 108 µM
MIC (Staphylococcus aureus [6]): 108 µM
MIC (Acinetobacter baumannii): 108 µM
MIC (Escherichia coli [7]): 108 µM
MIC (Staphylococcus aureus [8]): 108 µM
MIC (Pseudomonas aeruginosa [9]): 108 µM
MIC (Klebsiella pneumoniae): 108 µM

COc1ccc2cc3[n+](cc2c1OCC(O)Cn1cnc2cc(Br)ccc21)CCc1cc2c(cc1-3)OCO2.[Br-] (centres undefined)
solubility [1]: 774 µM
MIC (Pseudomonas aeruginosa [2]): 98 µM
MIC (Staphylococcus aureus [3]): 98 µM
MIC (Enterococcus faecalis): 98 µM
MIC (Staphylococcus aureus [4]): 98 µM
MIC (Escherichia coli [5]): 49 µM
MIC (Staphylococcus aureus [6]): 24 µM
MIC (Acinetobacter baumannii): 98 µM
MIC (Escherichia coli [7]): 98 µM
MIC (Staphylococcus aureus [8]): 98 µM
MIC (Pseudomonas aeruginosa [9]): 98 µM
MIC (Klebsiella pneumoniae): 24 µM

COc1ccc2cc3[n+](cc2c1OCC(O)Cn1ccnc1-c1ccccc1)CCc1cc2c(cc1-3)OCO2.[Br-] (centres undefined)
solubility [1]: 701 µM
MIC (Pseudomonas aeruginosa [2]): 106 µM
MIC (Staphylococcus aureus [3]): 53 µM
MIC (Enterococcus faecalis): 106 µM
MIC (Staphylococcus aureus [4]): 53 µM
MIC (Escherichia coli [5]): 27 µM
MIC (Staphylococcus aureus [6]): 7 µM
MIC (Acinetobacter baumannii): 27 µM
MIC (Escherichia coli [7]): 106 µM
MIC (Staphylococcus aureus [8]): 106 µM
MIC (Pseudomonas aeruginosa [9]): 106 µM
MIC (Klebsiella pneumoniae): 53 µM

COc1ccc2cc3[n+](cc2c1OCC(O)Cn1nnnc1C)CCc1cc2c(cc1-3)OCO2.[Br-] (centres undefined)
solubility [1]: 2150 µM
MIC (Pseudomonas aeruginosa [2]): 121 µM
MIC (Staphylococcus aureus [3]): 61 µM
MIC (Enterococcus faecalis): 121 µM
MIC (Staphylococcus aureus [4]): 61 µM
MIC (Escherichia coli [5]): 121 µM
MIC (Staphylococcus aureus [6]): 121 µM
MIC (Acinetobacter baumannii): 121 µM
MIC (Escherichia coli [7]): 121 µM
MIC (Staphylococcus aureus [8]): 121 µM
MIC (Pseudomonas aeruginosa [9]): 121 µM
MIC (Klebsiella pneumoniae): 121 µM

CCN(CC)CC(O)COc1c(OC)ccc2cc3[n+](cc12)CCc1cc2c(cc1-3)OCO2.[Br-] (centres undefined)
solubility [1]: 3320 µM
MIC (Pseudomonas aeruginosa [2]): 60 µM
MIC (Staphylococcus aureus [3]): 60 µM
MIC (Enterococcus faecalis): 120 µM
MIC (Staphylococcus aureus [4]): 120 µM
MIC (Escherichia coli [5]): 241 µM
MIC (Staphylococcus aureus [6]): 60 µM
MIC (Acinetobacter baumannii): 60 µM
MIC (Escherichia coli [7]): 120 µM
MIC (Staphylococcus aureus [8]): 60 µM
MIC (Pseudomonas aeruginosa [9]): 60 µM
MIC (Klebsiella pneumoniae): 241 µM

COc1ccc2cc3[n+](cc2c1OCC(O)Cn1cnnc1)CCc1cc2c(cc1-3)OCO2.[Br-] (centres undefined)
solubility [1]: 1100 µM
MIC (Pseudomonas aeruginosa [2]): 243 µM
MIC (Staphylococcus aureus [3]): 243 µM
MIC (Enterococcus faecalis): 243 µM
MIC (Staphylococcus aureus [4]): 243 µM
MIC (Escherichia coli [5]): 121 µM
MIC (Staphylococcus aureus [6]): 243 µM
MIC (Acinetobacter baumannii): 243 µM
MIC (Escherichia coli [7]): 243 µM
MIC (Staphylococcus aureus [8]): 243 µM
MIC (Pseudomonas aeruginosa [9]): 121 µM
MIC (Klebsiella pneumoniae): 121 µM

COc1ccc2cc3[n+](cc2c1OCC(O)CN1CCNCC1)CCc1cc2c(cc1-3)OCO2.[Br-] (centres undefined)
solubility [1]: 3810 µM
MIC (Pseudomonas aeruginosa [2]): 15 µM
MIC (Staphylococcus aureus [3]): 118 µM
MIC (Enterococcus faecalis): 118 µM
MIC (Staphylococcus aureus [4]): 235 µM
MIC (Escherichia coli [5]): 118 µM
MIC (Staphylococcus aureus [6]): 59 µM
MIC (Acinetobacter baumannii): 118 µM
MIC (Escherichia coli [7]): 235 µM
MIC (Staphylococcus aureus [8]): 118 µM
MIC (Pseudomonas aeruginosa [9]): 118 µM
MIC (Klebsiella pneumoniae): 15 µM

COc1ccc2cc3[n+](cc2c1OCC(O)CSc1nnnn1C)CCc1cc2c(cc1-3)OCO2.[Br-] (centres undefined)
solubility [1]: 992 µM
MIC (Pseudomonas aeruginosa [2]): 111 µM
MIC (Staphylococcus aureus [3]): 111 µM
MIC (Enterococcus faecalis): 56 µM
MIC (Staphylococcus aureus [4]): 56 µM
MIC (Escherichia coli [5]): 28 µM
MIC (Staphylococcus aureus [6]): 56 µM
MIC (Acinetobacter baumannii): 56 µM
MIC (Escherichia coli [7]): 111 µM
MIC (Staphylococcus aureus [8]): 111 µM
MIC (Pseudomonas aeruginosa [9]): 111 µM
MIC (Klebsiella pneumoniae): 111 µM

COc1ccc2cc3[n+](cc2c1OCC(O)Cn1cnc2ccccc21)CCc1cc2c(cc1-3)OCO2.[Br-] (centres undefined)
solubility [1]: 1720 µM
MIC (Pseudomonas aeruginosa [2]): 111 µM
MIC (Staphylococcus aureus [3]): 56 µM
MIC (Enterococcus faecalis): 56 µM
MIC (Staphylococcus aureus [4]): 56 µM
MIC (Escherichia coli [5]): 28 µM
MIC (Staphylococcus aureus [6]): 56 µM
MIC (Acinetobacter baumannii): 56 µM
MIC (Escherichia coli [7]): 56 µM
MIC (Staphylococcus aureus [8]): 111 µM
MIC (Pseudomonas aeruginosa [9]): 56 µM
MIC (Klebsiella pneumoniae): 56 µM
